Literature values as cited in patent publication US20020111317A1, “Sixteen-membered macrolide compounds” (priority 2000, published 2002).
pKd: −log10 of the molar value.

Columns and labels:
wildtype ribosomes = conditions: read-out: Kd using wildtype ribosomes
[1] = biological target: methylated ribosome (e.g., A2058G mutant); conditions: read-out: Kd using methylated ribosome

SMILES | pKd (wildtype ribosomes) | pKd [1]
CC[C@H]1OC(=O)[C@H](C)C(=O)[C@H](C)[C@@H](O[C@@H]2O[C@H](C)C[C@H](N(C)C)[C@H]2O)[C@](C)(OC)C[C@@H](C)C(=O)[C@H](C)[C@H]2N(CCCCn3cnc(-c4cccnc4)c3)C(=O)O[C@]12C [telithromycin] | ~8.89 | ~7.24
CC[C@H]1OC(=O)[C@H](C)[C@@H](O[C@H]2C[C@@](C)(OC)[C@@H](O)[C@H](C)O2)[C@H](C)[C@@H](O[C@@H]2O[C@H](C)C[C@H](N(C)C)[C@H]2O)[C@](C)(O)C[C@@H](C)C(=O)[C@H](C)[C@@H](O)[C@]1(C)O [erythromycin A] | ~7.85 | ~3.72
